Assay results published in patent US10934255B2, “Nrf and HIF activators/HDAC inhibitors and therapeutic methods using the same” (THE BOARD OF TRUSTEES OF THE UNIVERSITY OF ILLINOIS, priority 2017, dated 2021).
Like-named read-outs stand apart in the source and are kept apart here.

Experiments:
[1] = tested on: TA98-S9, TA100-S9, TA1535-59, and TA1537-59; assay: Ames test (genetic toxicity); set-up: species or system bacterium; conditions: concentrations of 0.6-100 μM
Protocol: Compound II-ING-6 was tested in genetic toxicity assays to assess the mutagenic potential of the compound. The Ames test was done with several strains of bacterium, such as: TA98-S9, TA100-S9, TA1535-59, and TA1537-59.

[2] = tested on: panel of 43 cloned human and rodent CNS receptors, channels and transporters; assay: PDSP selectivity panel; assay type: binding; conditions: 43 CNS receptors
Protocol: Compound II-ING-6 also was tested in a panel of 43 cloned human and rodent CNS receptors, channels and transporters using the NIMH sponsored Psychoactive Drug Screening Program (PDSP).

C57BL/6 mice = assay: Behavioral screening in the SmartCube (SC) platform; assay type: in vivo; conditions: 50 mg/kg ip
Protocol: FIG. 4 contains the SC signature of II-ING-6 (50 mg/kg, ip) showing anxiolytic activity.
Another evidence that II-ING-6 is can cross the BBB was obtained from SC (Frontiers in Neuroscience 2011, 5 (103), p. 1-4) experiment. SC provides a sequence of challenges to mice and captures more than 2,000 features during a 1 hour testing session. These features are analyzed with computer algorithms and data mining approaches to automate the study of mice behavior and compared to a database of behavioral signatures obtained using a set of diverse reference compounds, including antidepressants, cognitive enhancers, antipsychotics, and anxiolytics. In this assay, C57BL/6 mice were injected with compound II-ING-6 at 50 mg/kg (ip).

[3] = Blood brain barrier test: tissue concentration after iv injection; assay type: in vivo, Mouse; conditions: after 20 minutes
Protocol: Tests were conducted to determine the ability of a present compound to cross the blood brain barrier (BBB). In particular, Mouse 1 was injected iv with about 7.5 mg/kg of compound II-ING-6 in DMSO. Mouse 2—about 10 mg/kg. Blood, brain, and liver were collected after 20 minutes (Table 4).

Nrf2 target genes = assay: In vivo activation of Nrf2 pathway (RT-PCR of target genes); conditions: 3 month old male C57BL/6 mice, 25 mg/kg i.p.
Protocol: The expression of Nrf2 target genes was assessed in 3 month old male C57BL/6 mice administered with II-ING-66 (25 mg/kg i.p.). […] These in vivo data support the in vitro observations of HIF-1α and Nrf2 activation by phenylhydroxamate HDAC inhibitors (Gaisina et al, ACS Chem. Neurosci. 2017).

Compound	Ames test result (mutagenic potential) [1]	Activity in PDSP panel [2]	SC signature (behavioral class) (C57BL/6 mice)	concentration at 20 min ([3]; brain, Mouse 1, iv 7.5 mg/kg in DMSO, read-out: Concentration, Brain) [ng/g]	concentration at 20 min ([3]; brain, Mouse 2, iv 10 mg/kg in DMSO, read-out: Concentration, Brain) [ng/g]	concentration at 20 min ([3]; liver, Mouse 1, iv 7.5 mg/kg in DMSO, read-out: Concentration, Liver) [ng/g]	concentration at 20 min ([3]; liver, Mouse 2, iv 10 mg/kg in DMSO, read-out: Concentration, Liver) [ng/g]	concentration at 20 min ([3]; plasma, Mouse 1, iv 7.5 mg/kg in DMSO, read-out: Concentration, Plasma) [ng/g]	concentration at 20 min ([3]; plasma, Mouse 2, iv 10 mg/kg in DMSO, read-out: Concentration, Plasma) [ng/g]	Hmox-1 expression in the liver (Nrf2 target genes)	Hmox-1 expression in ventral midbrain and striatum (Nrf2 target genes)	NQO1 expression in ventral midbrain and striatum (Nrf2 target genes)
O=C(NO)c1ccc(CN2CCc3ccc(Cl)cc32)cc1 [II-ING-6, 4-((6-Chloroindolin-1-yl)methyl)-N-hydroxybenzamide]	Negative	No significant activity	anxiolytic effect	1060	1760	501	1030	256	387			
O=C(NO)c1ccc(CN2C(=O)C(F)(F)c3ccccc32)cc1 [II-ING-66, 4-((3,3-Difluoro-2-oxoindolin-1-yl)methyl)-N-hydroxybenzamide]										significantly upregulated	significant increases	significant increases
